The numbers were not newly measured in patent US8614228B2, “Quinone prodrug compositions and methods of use” (ArQule, Inc., priority 2004, dated 2013), which cites them from elsewhere.

The series relates to normal fresh or proliferating human PBMC.

Regarding `CC1(C)CCC2=C(O1)c1ccccc1C(=O)C2=O` [β-lapachone, 3,4-dihydro-2,2-dimethyl-2H-naphtho[1,2-b]pyran-5,6-dione], the cytotoxic effects result was “No cytotoxic effects were observed”.
